Marks after values point to notes of the source that are not given here.
How the values were obtained:
Type in all cases: in vivo
[1] = system: Erysiphe graminis f. sp. tritici; assay: Test A: wheat powdery mildew, preventive spray on wheat seedlings, disease rating
How it was run: (§1)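 Preventive foliar spray to run-off on wheat seedlings, followed by disease rating. Test rate 200 ppm (equal to 500 g/ha), with some entries at 40 ppm or 50 ppm. Suspensions made in acetone/purified water 50/50 containing 250 ppm Trem 014.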

[2] = system: Puccinia recondita f. sp. tritici; assay: Test B: wheat leaf rust, preventive spray on wheat seedlings, disease rating
How it was run: as §1

Septoria nodorum = assay: Test C: wheat glume blotch, preventive spray on wheat seedlings, disease rating
How it was run: as §1

Septoria tritici = assay: Test D: wheat leaf blotch, preventive spray on wheat seedlings, disease rating
How it was run: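 Preventive test: one day after run-off spraying (200 ppm, equal to 500 g/ha, unless marked 40 or 50 ppm; acetone/water plus 250 ppm Trem 014), seedlings received S. tritici spore inoculum. Disease scored after 48 h at 24 °C in saturated air and 19 further days at 20 °C.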

Fusarium graminearum = conditions: 200 ppm; wheat head scab
Botrytis cinerea = assay: Test F: tomato Botrytis, preventive spray on tomato seedlings, disease rating; conditions: 200 ppm
How it was run: (§2)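 Disease ratings follow a preventive run-off spray of tomato seedlings. Compounds were first dissolved in acetone (3% of volume), then suspended in 50/50 acetone/water containing 250 ppm Trem 014. Test level 200 ppm (equivalent to 500 g/ha) except where marked * for 40 ppm or ** for 50 ppm.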

Alternaria solani = assay: Test H: tomato early blight, preventive spray on tomato seedlings, disease rating; conditions: 200 ppm
How it was run: as §2

Rhizoctonia oryzae = assay: Test I: turf brown patch, preventive spray on creeping bent grass seedlings, disease rating; conditions: 200 ppm
Description: The test compounds were first dissolved in acetone in an amount equal to 3% of the final volume and then suspended at the desired concentration (in ppm) in acetone and purified water (50/50 mix) containing 250 ppm of the surfactant Trem® 014 (polyhydric alcohol esters). The resulting test suspensions were then used in Tests A-L. Spraying a 200 ppm test suspension to the point of run-off on the test plants was the equivalent of an application rate of 500 g/ha. The test suspension was sprayed to the point of run-off on creeping bent grass seedlings. […] A dash (-) indicates no test results. All results are for 200 ppm except where followed by an “*”, which indicates 40 ppm or “**”, which indicates 50 ppm.

Phytophthora infestans = conditions: 200 ppm; tomato late blight
Plasmopara viticola = assay: Test K: grape downy mildew, spray on grape seedlings after inoculation, disease rating
Description: The test compounds were first dissolved in acetone in an amount equal to 3% of the final volume and then suspended at the desired concentration (in ppm) in acetone and purified water (50/50 mix) containing 250 ppm of the surfactant Trem® 014 (polyhydric alcohol esters). The resulting test suspensions were then used in Tests A-L. Spraying a 200 ppm test suspension to the point of run-off on the test plants was the equivalent of an application rate of 500 g/ha. Grape seedlings were inoculated with a spore suspension of Plasmopara viticola (the causal agent of grape downy mildew) and incubated in a saturated atmosphere at 20° C. for 24 h. After a short drying period, the test suspension was sprayed to the point of run-off on the grape seedlings and then moved to a growth chamber at 20° C. for 6 days, after which the test units were placed back into a saturated atmosphere at 20° C. for 24 h. Upon removal, disease ratings were made. […] A dash (-) indicates no test results. All results are for 200 ppm except where followed by an “*”, which indicates 40 ppm or “**”, which indicates 50 ppm.

Pythium aphanidermatum = assay: Test L: bluegrass pythium blight, preventive spray on bluegrass seedlings, disease rating
Description: The test compounds were first dissolved in acetone in an amount equal to 3% of the final volume and then suspended at the desired concentration (in ppm) in acetone and purified water (50/50 mix) containing 250 ppm of the surfactant Trem® 014 (polyhydric alcohol esters). The resulting test suspensions were then used in Tests A-L. Spraying a 200 ppm test suspension to the point of run-off on the test plants was the equivalent of an application rate of 500 g/ha. The test suspension was sprayed to the point of run-off on bluegrass seedlings. […] A dash (-) indicates no test results. All results are for 200 ppm except where followed by an “*”, which indicates 40 ppm or “**”, which indicates 50 ppm.

SMILES	Percentage Disease Control, Test A ([1]; 40 ppm (*))	Percentage Disease Control, Test B ([2]; 40 ppm (*))	Percentage Disease Control, Test C (Septoria nodorum; 40 ppm (*))	Percentage Disease Control, Test D (Septoria tritici; 40 ppm (*))	Percentage Disease Control, Test E (Fusarium graminearum) [%]	Percentage Disease Control, Test F (Botrytis cinerea) [%]	Percentage Disease Control, Test H (Alternaria solani) [%]	Percentage Disease Control, Test I (Rhizoctonia oryzae) [%]	Percentage Disease Control, Test J (Phytophthora infestans) [%]	Percentage Disease Control, Test K (Plasmopara viticola; 40 ppm (*))	Percentage Disease Control, Test L (Pythium aphanidermatum; 40 ppm (*))	Percentage Disease Control, Test A ([1]; 200 ppm) [%]	Percentage Disease Control, Test B ([2]; 200 ppm) [%]	Percentage Disease Control, Test C (Septoria nodorum; 200 ppm) [%]	Percentage Disease Control, Test D (Septoria tritici; 200 ppm) [%]	Percentage Disease Control, Test K (Plasmopara viticola; 200 ppm) [%]	Percentage Disease Control, Test L (Pythium aphanidermatum; 200 ppm) [%]
COC(=O)NCc1cc(-c2ccn(CCC[Si](C)(C)C)n2)ccc1Cl [Cmpd 23]	99* %	100* %	100* %	98* %	99	0	0	0	91	99* %	93* %	–	–	–	–	–	–
COC(=O)NCc1cc(-c2ccn(Cc3cnc(Cl)s3)n2)ccc1Cl [Cmpd 25]	–	–	–	–	77	37	76	0	0	–	–	91	96	78	96	63	0
COC(=O)NCc1cc(-c2ccn(CCC(C)C)n2)ccc1Cl [Cmpd 22]	99* %	95* %	–	85* %	99	0	0	0	50	–	94* %	–	–	99	–	99	–
COC(=O)NCc1cc(-c2ccn(C)n2)ccc1Cl [Cmpd 28]	–	–	–	–	0	0	28	0	0	–	–	54	88	0	86	25	0
COC(=O)NCc1cc(C(C)=NOC[Si](C)(C)c2ccc(Cl)cc2)ccc1Cl [Compound 5]	–	–	–	100* %	0	0	77	0	0	–	–	99	100	99	–	23	0
COC(=O)NCc1cc(-c2ccn(CC#N)n2)ccc1Cl [Cmpd 26]	–	–	–	–	0	0	0	0	60	–	–	0	73	0	26	6	0
